Measured values: PMC5681435, “Differential Regulation of G1 CDK Complexes by the Hsp90-Cdc37 Chaperone System” (Cell Reports, 2017)
“Also recorded” adds a separate entry of the source.

How the values were obtained:
CDK4-cyclin D = tested on: CDK4-cyclin D; set-up: method as in Sherr et al., 2016; conditions: ref Sherr et al., 2016; read-out: IC50 against CDK4-cyclin D; cited from earlier work
CDK6-cyclin D = tested on: CDK6-cyclin D; set-up: method as in Sherr et al., 2016; conditions: ref Sherr et al., 2016; read-out: IC50 against CDK6-cyclin D; cited from earlier work
CDK4-Cdc37 complex = molecular target: T1, CDK4-Cdc37 complex (Homo sapiens, UniProt P11802); assay type: binding; conditions: HTRF competition, 8 nM GSTCDK4, 150 nM C-Avi Cdc37
T1 construct: Full length human CDK4 and CDK6 with an N-terminal; made in house; host or cells: GSTCDK4: Sf9 insect cells; Cdc37: E. coli
T1 sequence (P11802 whole entry, one chain of several): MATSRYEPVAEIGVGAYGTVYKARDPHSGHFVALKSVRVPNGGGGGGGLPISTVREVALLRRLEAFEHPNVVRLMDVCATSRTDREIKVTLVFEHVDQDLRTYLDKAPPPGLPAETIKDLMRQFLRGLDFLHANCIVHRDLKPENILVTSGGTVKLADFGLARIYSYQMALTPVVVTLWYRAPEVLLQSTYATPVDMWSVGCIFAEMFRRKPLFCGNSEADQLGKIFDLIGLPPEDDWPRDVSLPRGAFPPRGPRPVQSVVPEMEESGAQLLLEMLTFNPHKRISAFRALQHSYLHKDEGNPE

[1] = molecular target: B-Raf^V600E kinase domain; set-up: method as in Polier et al., 2013; conditions: isothermal titration calorimetry; ref Polier et al., 2013; read-out: Affinity of Cdc37-B-Raf^V600E kinase domain interaction; cited from earlier work
CDK4 = molecular target: T2, CDK4 (Homo sapiens, UniProt P11802); assay: HTRF direct binding to GSTCDK4; conditions: GSTCDK4 10 nM, read-out: Dissociation constant for binding to CDK4
T2 construct: Full length human CDK4 and CDK6 with an N-terminal; made in house; host or cells: Sf9 insect cells (baculovirus, MultiBac)
T2 sequence (P11802 whole entry): as the sequence (P11802 whole entry, one chain of several) above
Description: (§1) exchange chromatography (HiTrap Q, GE Healthcare). Protein concentrations were determined by NanoDrop2000 UV-Vis Spectrophotometer (Thermo Scientific) or using a Shimadzu UV1800 spectrophotometer. A representative SDS-polyacrylamide gel stained with silver is shown in Figure S4 to illustrate the purity of the GSTCDK4 and GSTCDK6 […]
(§2) Avi-tagged proteins (Cdc37, p16INK4a, p16INK4a mutants, Kcyclin and Vcyclin) were biotinylated to provide an affinity tag for the streptavidin-tagged XL665 dye. A substantial amount of biotinylated protein was purified from the recombinant E. coli cells as a result of endogenous BirA activity. Proteins were further modified by incubating 40 µM of the Avi-tagged protein with 10 µg BirA in biotinylation buffer (50 mM Bicine pH 8.3, 10 mM ATP, 10 mM MgOAc, 50 µM d-biotin) at 30°C for 60 minutes. […] The extent of protein biotinylation was monitored by pull downs using High Capacity NeutrAvidin® Agarose Resin (Thermo […]
(§3) To assemble the various complexes, 15 µg of Cdc37 was mixed with a molar equivalent of CDK6, and incubated for 1hour at 4 °C. […] The reactions were stopped by addition of 2 x LDS buffer and analysed by SDS-PAGE and subsequent western blotting using an anti-phosphorylated S780 antibody […]
(§4) Homogenous time-resolved fluorescence (HTRF) […]

CDK2 = molecular target: T3, CDK2 (Homo sapiens, UniProt P24941); assay: HTRF direct binding to GSTCDK2; conditions: GSTCDK2 25 nM
T3 construct: made in house; host or cells: E. coli BL21STAR(DE3)
Description: as §1, §2, §3, §4

CDK6 = molecular target: T4, CDK6 (Homo sapiens, UniProt Q00534); assay: HTRF direct binding to GSTCDK6; conditions: GSTCDK6 10 nM, read-out: Dissociation constant for binding to CDK6
T4 construct: Full length human CDK4 and CDK6 with an N-terminal; made in house; host or cells: Sf9 insect cells (baculovirus, MultiBac)
T4 sequence (Q00534 whole entry): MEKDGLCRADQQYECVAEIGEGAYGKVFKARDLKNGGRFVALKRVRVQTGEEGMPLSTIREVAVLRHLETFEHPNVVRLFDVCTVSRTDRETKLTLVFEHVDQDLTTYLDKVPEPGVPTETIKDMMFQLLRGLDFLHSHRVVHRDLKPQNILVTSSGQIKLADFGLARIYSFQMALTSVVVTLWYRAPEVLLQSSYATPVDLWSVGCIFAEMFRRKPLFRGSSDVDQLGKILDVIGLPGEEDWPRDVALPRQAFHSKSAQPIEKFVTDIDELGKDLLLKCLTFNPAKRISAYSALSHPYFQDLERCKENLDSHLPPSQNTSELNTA
Description: as §1, §2, §3, §4

[2] = molecular target: T5, CDK4-cyclin D1/D3 complexes (Homo sapiens, UniProt P11802); assay: HTRF association of Avi-tagged Cdc37 with GSTCDK4-cyclin D complexes with or without p21M/p27M; assay type: binding; conditions: ternary complex, Figure 4E
T5 construct: Full length human CDK4 and CDK6 with an N-terminal; made in house; host or cells: Sf9 insect cells (co-expression)
T5 sequence (P11802 whole entry): as the sequence (P11802 whole entry, one chain of several) above
T5 sequence (P30281 whole entry partner): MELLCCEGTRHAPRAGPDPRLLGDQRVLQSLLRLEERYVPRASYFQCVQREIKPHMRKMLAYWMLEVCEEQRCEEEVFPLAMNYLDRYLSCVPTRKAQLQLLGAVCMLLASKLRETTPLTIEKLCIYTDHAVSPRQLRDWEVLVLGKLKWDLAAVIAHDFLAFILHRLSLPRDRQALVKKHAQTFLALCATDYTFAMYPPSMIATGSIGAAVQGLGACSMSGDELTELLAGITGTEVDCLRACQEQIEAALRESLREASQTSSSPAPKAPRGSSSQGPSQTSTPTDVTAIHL
Description: To find out whether the CIP/KIP CKIs can cooperate with cyclin D isoforms to generate a stable ternary CDK4 complex that is resistant to displacement by Cdc37, we next purified GSTCDK4-cyclin D1 and D3 and GSTCDK6-cyclin D1 and D3 complexes assembled in insect cells, incubated them with excess p21M or p27M, and isolated the complexes by size-exclusion chromatography. We then used the HTRF assay to measure the association of Avi-tagged Cdc37 with GSTCDK4 and GSTCDK6, which were presented unpartnered, in a binary complex with cyclin D1 or cyclin D3, or in a ternary complex with cyclin D1 or D3 and p21M, or p27M. As shown previously, Cdc37 binds to monomeric CDK4 (Figures 4C and 4E, blue lines) and effectively displaces cyclin D1 or cyclin D3 (Figures 4C and 4E, red lines). […]
as §1
Avi-tagged proteins (Cdc37, p16INK4a, p16INK4a mutants, Kcyclin and Vcyclin) were biotinylated to provide an affinity tag for the streptavidin-tagged XL665 dye. […] The extent of protein biotinylation was monitored by pull downs using High Capacity NeutrAvidin® Agarose Resin (Thermo […]

Row | Compound | IC50 (CDK4-cyclin D) | IC50 (CDK6-cyclin D) | Displacement of Cdc37 from CDK4-Cdc37 complex (in words) (CDK4-Cdc37 complex) | further results
1 | CN(C)C(=O)c1cc2cnc(Nc3ccc(N4CCNCC4)cn3)nc2n1C1CCCC1 [LEE011, ribociclib] | 10 nM | 39 nM |  | 
2 | CCN1CCN(Cc2ccc(Nc3ncc(F)c(-c4cc(F)c5nc(C)n(C(C)C)c5c4)n3)nc2)CC1 [LY2835219, abemaciclib] | 2 nM | 5 nM | unable to derive reproducible inhibition curves | 
3 | CC(=O)c1c(C)c2cnc(Nc3ccc(N4CCNCC4)cn3)nc2n(C2CCCC2)c1=O [PD0332991, palbociclib] | 11 nM | 15 nM |  | 
4 | Cdc37: human Hsp90 adaptor co-chaperone Cdc37, recombinant, Avi- or FLAG-tagged |  |  |  | Kd [1]: ~200 nM; Kd (CDK4): 92 ± 29 nM; Binding to CDK2 (CDK2): not bind to CDK2; also recorded: no interaction could be detected; Kd (CDK6): 460 ± 230 nM
5 | p21M: p21CIP1 fragment residues 1–87 |  |  | can displace | Effect of addition to CDK4-cyclin D3 on Cdc37 binding [2]: prevent Cdc37 from binding
6 | p21S: p21CIP1 fragment residues 9–87 |  |  | can displace | 
